{"source": "patent US10231907B2", "about": "“Compositions for improving the health and appearance of skin” (Algenist Holdings, Inc., priority 2006, dated 2019)", "key": {"[1]": {"system": "Fibroblasts", "assay": "Procollagen synthesis (type I C-peptide ELISA) in fibroblast culture", "type": "cell-based, human", "details": "4 mM, 48 hours, mean ± SD", "source_text": "A fibroblast cell culture model was used to assess the ability of the polysaccharide from Porphyridium to exert an effect on procollagen synthesis. Fibroblasts are the main source of the extracelluar matrix peptides, including the structural protein collagen. Procollagen is a large peptide synthesized by fibroblasts in the dermal layer of the skin and is the precursor for collagen. As the peptide is processed to form a mature collagen protein, the propeptide portion is cleaved off (type I C-peptide). Both the mature collagen protein and the type I C-peptide fragment are then released into the extracellular environment. As collagen is synthesized the type I C-peptide fragment accumulates into the tissue culture medium. Since there is a 1:1 stoichiometric ratio between the two parts of the procollagen peptide, assaying for type I C-peptide reflects the amount of collagen synthesized. […]\nA series of type I C-peptide standards was prepared ranging from 0 ng/ml to 640 ng/ml. […] After the incubation 100 μl of stop solution (1 N sulfuric acid) was added to each well and the plate was read using a microplate reader at 450 nm.\nTo quantify the amount of procollagen present, a standard curve was generated using known concentrations of procollagen. […] Absorbance values for the test and positive control samples was used to determine the amount of procollagen present. […]"}, "[2]": {"system": "Porphyridium sp. and Porphyridium cruentum", "assay": "Antibiotic sensitivity on agar plates", "type": "cell-based", "details": "14 days", "method": "Approximately […] cells (300 ul of 1.5×10^5 cells per ml) of Porphyridium sp. and Porphyridium cruentum cultures in liquid ATCC 1495 ASW media were plated onto ATCC 1495 ASW agar plates (1.5% agar). The plates contained varying amounts of zeocin, sulfometuron, hygromycin and spectinomycin. The plates were put under constant artificial fluorescent light of approximately 480 lux. After 14 days, plates were checked for growth."}, "[3]": {"system": "MatTek EpiDerm® skin model (normal human-derived epidermal keratinocytes)", "assay": "TT dimer-UV exposure assay in MatTek EpiDerm skin model", "type": "cell-based", "details": "1 mM, UVB 300 mJ/cm^2, mean ± SD", "method": "TT dimer-UV exposure assay: The testing system used for this assay was the MatTek EpiDerm®, a skin model that consists of normal human-derived epidermal keratinocytes cultured to form a multilayered, highly differentiated model of the human epidermis. For this study, the tissues were treated topically overnight with either test materials, 1 mM Trolox (positive control), or left untreated (negative control). On the following day, the tissues were exposed to UVB (300 mJ/cm^2). Following the exposures the DNA was extracted from the EpiDerm tissues and assayed for thymine dimer content. Samples of the DNA were immobilized on a solid membrane support and incubated with an antibody that recognizes thymidine dimers in double stranded DNA. The primary antibody was detected using a secondary antibody conjugated to an alkaline phosphatase enzyme followed by the addition of a substrate that the alkaline phosphatase enzyme uses to generate a chemiluminescent signal. The light generated by this reaction was captured using film with the intensity of the light signal being proportional to the amount of the thymine dimers present in the sample. Test material BM was Porphyridium sp. biomass that had been homogenized with a Microfluidizer® twice and then lyophilized. […] Extracted DNA was quantified via a fluorometric assay. […]"}, "[4]": {"system": "hyaluronidase", "assay": "Anti-hyaluronidase assay (bHA-coated 96-well plate)", "type": "biochemical", "details": "0.1%", "method": "Biotinylated hyaluronic acid (bHA) was covalently attached to the wells of a 96-well plate. Samples containing hyaluronidase and various test materials were then added to the wells. The hyaluronidase degrades the bound hyaluronic acid, resulting in a decrease in the amount of biotin covalently linked to the well plate. At the end of the incubation period the reaction was stopped and the well plate was washed to remove the hyaluronidase. The remaining bHA was detected using an avidin bound peroxidase enzyme. When an appropriate substrate is added, the peroxidase enzyme generated a color signal in proportion to the amount of bHA. The color signal was measured spectrophotometrically, and was inversely proportional to the amount of hyaluronidase activity in the sample. […] Also see Frost, G. I., Stern, R. A Microtiter-Based Assay for Hyaluronidase Activity Not Requiring Specialized Reagents. Analytical Biochemistry 251, 263-269: 1997. […]\nDuring the 30 minute incubation, an avidin/biotin-peroxidase complex was prepared in 10.5 ml of PBS containing 0.1% Tween 20 using an ABC kit. […] The plate was incubated in the dark for 10-20 minutes and then read at 460 nm using a plate reader. The substrate solution was also added to three wells that were not treated with test materials or the avidin/biotin-peroxidase solution and were used as a blank for the absorbance measurements. […]"}}, "data": [{"compound": "CCCC(=O)[O-].[Na+]", "note": "[Na Butyrate, sodium butyrate]", "values": [{"measurement": "Type I C-Peptide", "setting": "[1]", "value": "1425 ± 81", "unit": "ng/mL"}]}, {"compound": "CN[C@@H]1[C@H](O)[C@H](NC)[C@H]2O[C@@]3(O)C(=O)C[C@@H](C)O[C@H]3O[C@@H]2[C@H]1O", "note": "[Specinomycin]", "values": [{"measurement": "Growth", "setting": "[2]; 100.0 ug/ml", "value": "+ + + +"}, {"measurement": "Growth", "setting": "[2]; 250.0 ug/ml", "value": "+ + + +"}, {"measurement": "Growth", "setting": "[2]; 750.0 ug/ml", "value": "+ + + +"}]}, {"compound": "Cc1c(C)c2c(c(C)c1O)CCC(C)(C(=O)O)O2", "note": "(stereo not drawn) [Trolox]", "values": [{"measurement": "Optical Density (thymidine dimer)", "setting": "[3]", "value": "107 ± 1", "unit": "optical density units"}]}, {"compound": "heparin", "values": [{"measurement": "Percent Inhibition", "setting": "[4]", "value": 74, "unit": "%"}]}]}
